According to patent US8354436B2 (4SC Discovery GmbH, priority 2011, dated 2013):
Where two headings read alike, the source gives them in different places. Each block holds one compound with its values, some of them ahead of it.

Key:
Assay type in all cases: cell-based
Details in all cases: 48 hours
IL-17FF = IL-17FF production by PHA-stimulated human PBMC (human IL-17F ELI-Pair)
How it was run: (§1)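 Healthy-donor PBMC (1×10^5 cells/well) were activated with 2 μg/ml PHA and cultured with test compounds for 48 hours; cytokines were then quantified in supernatants by the respective immunoassay. Screening used 10, 1, 0.1 and 0.01 μM; IC50 came from semilogarithmic compound titration.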

IFN-γ = IFN-γ production by PHA-stimulated human PBMC (OptEIA human IFN-g ELISA)
How it was run: as §1

[1] = test system: PBMC from healthy human donors; experiment: T cell proliferation assay (PHA-stimulated human PBMC, BrdU ELISA)
How it was run: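 Proliferation was quantified by BrdU ELISA 48 hours after starting culture of 1×10⁵ human PBMC per well with test compound and 2 μg/ml phytohaemagglutinin. Cells came from healthy donors via Ficoll separation and were kept in RPMI1640 with 10% dialysed heat-inactivated FCS.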

[2] = PHA-stimulated human PBMC, column B, read-out: IC50 (IL-17FF)
[3] = PHA-stimulated human PBMC, column C, read-out: IC50 (IFNγ)
[4] = PHA-stimulated human PBMC, column D, read-out: IC50 (Tcell proliferation)

Compound: Fc1cccc(-n2ncc(-c3onc(-c4c(F)cccc4Cl)c3-c3ccco3)c2C(F)(F)F)c1 [Example 17, 3-(2-chloro-6-fluorophenyl)-5-(1-(3-fluorophenyl)-5-(trifluoromethyl)-1H-pyrazol-4-yl)-4-(furan-2-yl)isoxazole]
IC50 (IL-17FF; human PBMC, 2 μg/ml PHA, read-out: B: IC50 (IL-17FF)): < 10 nM
IC50 (IFN-γ; human PBMC, 2 μg/ml PHA, read-out: C: IC50 (IFNγ)): < 10 nM
IC50 ([1]; human PBMC, 2 μg/ml PHA, read-out: D: IC50 (Tcell proliferation)): < 10 nM

Compound: NC(=O)c1c(-c2c(F)cccc2Cl)noc1-c1cnn(-c2cccc(Cl)c2)c1C(F)(F)F [Example I-121, 3-(2-chloro-6-fluorophenyl)-5-(1-(3-chlorophenyl)-5-(trifluoromethyl)-1H-pyrazol-4-yl)isoxazole-4-carboxamide]
IC50 (IL-17FF; [2]): 1000 to 10000 nM
IC50 (IFN-γ; [3]): 1000 to 10000 nM
IC50 [1, 4]: 1000 to 10000 nM

Compound: Fc1cccc(Cl)c1-c1noc(-c2cnn(-c3cccc(Cl)c3)c2C(F)(F)F)c1Br [Example I-140, 4-bromo-3-(2-chloro-6-fluorophenyl)-5-(1-(3-chlorophenyl)-5-(trifluoromethyl)-1H-pyrazol-4-yl)isoxazole]
IC50 (IL-17FF; [2]): < 10 nM
IC50 (IFN-γ; [3]): < 10 nM
IC50 [1, 4]: 10 to 100 nM

Compound: CNC(=S)c1c(-c2c(F)cccc2Cl)noc1-c1cnn(-c2cccc(F)c2)c1C(F)(F)F [Example I-122, 3-(2-chloro-6-fluorophenyl)-5-(1-(3-fluorophenyl)-5-(trifluoromethyl)-1H-pyrazol-4-yl)-N-methylisoxazole-4-carbothioamide]
IC50 (IL-17FF; [2]): 100 to 1000 nM
IC50 (IFN-γ; [3]): 100 to 1000 nM
IC50 [1, 4]: 100 to 1000 nM

Compound: COC(=O)c1c(-c2c(F)cccc2Cl)noc1-c1cnn(-c2ccc(S(C)(=O)=O)cc2)c1C(F)(F)F [Example I-85, methyl 3-(2-chloro-6-fluorophenyl)-5-(1-(4-(methylsulfonyl)phenyl)-5-(trifluoromethyl)-1H-pyrazol-4-yl)isoxazole-4-carboxylate]
IC50 (IL-17FF; [2]): 1000 to 10000 nM
IC50 (IFN-γ; [3]): 1000 to 10000 nM
IC50 [1, 4]: 1000 to 10000 nM

Compound: COC(=O)c1c(-c2c(F)cccc2Cl)noc1-c1cnn(C(C)C)c1C(F)(F)F [Example I-66, methyl 3-(2-chloro-6-fluorophenyl)-5-(1-isopropyl-5-(trifluoromethyl)-1H-pyrazol-4-yl)isoxazole-4-carboxylate]
IC50 (IL-17FF; [2]): 1000 to 10000 nM
IC50 (IFN-γ; [3]): 100 to 1000 nM
IC50 [1, 4]: 1000 to 10000 nM

Compound: CCOC(=O)c1c(-c2onc(-c3c(F)cccc3Cl)c2C(=O)OC)cnn1-c1ccc(F)cc1F [Example I-35, methyl 3-(2-chloro-6-fluorophenyl)-5-(1-(2,4-difluorophenyl)-5-(ethoxycarbonyl)-1H-pyrazol-4-yl)isoxazole-4-carboxylate]
IC50 (IL-17FF; [2]): 100 to 1000 nM
IC50 (IFN-γ; [3]): 100 to 1000 nM
IC50 [1, 4]: 100 to 1000 nM

Compound: COC(=O)c1c(-c2ccc(Cl)cc2Cl)noc1-c1cnn(-c2cccc(F)c2)c1C(F)(F)F [Example I-111, methyl 3-(2,4-dichlorophenyl)-5-(1-(3-fluorophenyl)-5-(trifluoromethyl)-1H-pyrazol-4-yl)isoxazole-4-carboxylate]
IC50 (IL-17FF; [2]): 1000 to 10000 nM
IC50 (IFN-γ; [3]): 1000 to 10000 nM
IC50 [1, 4]: 100 to 1000 nM

Compound: N#Cc1c(-c2c(F)cccc2Cl)noc1-c1cnn(-c2cccc(Cl)c2)c1C(F)(F)F [Example I-49, 3-(2-chloro-6-fluorophenyl)-5-(1-(3-chlorophenyl)-5-(trifluoromethyl)-1H-pyrazol-4-yl)isoxazole-4-carbonitrile]
IC50 (IL-17FF; [2]): 100 to 1000 nM
IC50 (IFN-γ; [3]): 100 to 1000 nM
IC50 [1, 4]: 100 to 1000 nM

Further lines, with some results ahead:

IC50 (IL-17FF; [2]): 10 to 100 nM
IC50 (IFN-γ; [3]): 10 to 100 nM
Compound: COC(=O)c1c(-c2ccccc2F)noc1-c1cnn(-c2cccc(Cl)c2)c1C(F)(F)F [IB-77, methyl 5-(1-(3-chlorophenyl)-5-(trifluoromethyl)-1H-pyrazol-4-yl)-3-(2-fluorophenyl)isoxazole-4-carboxylate]
IC50 [1, 4]: 10 to 100 nM

IC50 (IL-17FF; [2]): 100 to 1000 nM
IC50 (IFN-γ; [3]): 100 to 1000 nM
Compound: CCOC(=O)c1c(-c2c(F)cccc2Cl)noc1-c1cnn(-c2ccccc2Br)c1C(F)(F)F [IB-72, ethyl 5-(1-(2-bromophenyl)-5-(trifluoromethyl)-1H-pyrazol-4-yl)-3-(2-chloro-6-fluorophenyl)isoxazole-4-carboxylate]
IC50 [1, 4]: 100 to 1000 nM

IC50 (IL-17FF; [2]): 1000 to 10000 nM
IC50 (IFN-γ; [3]): 1000 to 10000 nM
Compound: CC(C)OC(=O)c1c(-c2c(F)cccc2Cl)noc1-c1cnn(-c2ccccc2Cl)c1C(F)(F)F [IB-60]
IC50 [1, 4]: 1000 to 10000 nM

IC50 (IL-17FF; [2]): 1000 to 10000 nM
IC50 (IFN-γ; [3]): 1000 to 10000 nM
Compound: CON(C)C(=O)c1c(-c2c(F)cccc2Cl)noc1-c1cnn(-c2cccnc2)c1C(F)(F)F [IB-56, 3-(2-chloro-6-fluorophenyl)-N-methoxy-N-methyl-5-(1-(pyridin-3-yl)-5-(trifluoromethyl)-1H-pyrazol-4-yl)isoxazole-4-carboxamide]
IC50 [1, 4]: 1000 to 10000 nM

IC50 (IL-17FF; [2]): 1000 to 10000 nM
IC50 (IFN-γ; [3]): 1000 to 10000 nM
Compound: O=C(O)c1c(-c2ccccc2Cl)noc1-c1cnn(-c2cccc(Cl)c2)c1C(F)(F)F [IB-42, 3-(2-chlorophenyl)-5-(1-(3-chlorophenyl)-5-(trifluoromethyl)-1H-pyrazol-4-yl)-isoxazole-4-carboxylic acid]
IC50 [1, 4]: 1000 to 10000 nM

IC50 (IL-17FF; [2]): 1000 to 10000 nM
IC50 (IFN-γ; [3]): 1000 to 10000 nM
Compound: CCOC(=O)c1c(-c2c(F)cccc2Cl)noc1-c1cnn(-c2ccc(NC(C)=O)cc2)c1C(F)(F)F [IB-99, ethyl 5-(1-(4-acetamidophenyl)-5-(trifluoromethyl)-1H-pyrazol-4-yl)-3-(2-chloro-6-fluorophenyl)isoxazole-4-carboxylate]
IC50 [1, 4]: 1000 to 10000 nM

IC50 (IL-17FF; [2]): 10 to 100 nM
IC50 (IFN-γ; [3]): 10 to 100 nM
Compound: COC(=O)c1c(-c2c(F)cccc2Cl)noc1-c1cnn(-c2cccc(N)c2)c1C(F)(F)F [IB-92, methyl 5-(1-(3-aminophenyl)-5-(trifluoromethyl)-1H-pyrazol-4-yl)-3-(2-chloro-6-fluorophenyl)isoxazole-4-carboxylate]
IC50 [1, 4]: 10 to 100 nM

IC50 (IL-17FF; [2]): 10 to 100 nM
IC50 (IFN-γ; [3]): 100 to 1000 nM
Compound: COC(=O)c1c(-c2ccc(Cl)cc2Cl)noc1-c1cnn(-c2cccc(Cl)c2)c1C(F)(F)F [IB-76, methyl 5-(1-(3-chlorophenyl)-5-(trifluoromethyl)-1H-pyrazol-4-yl)-3-(2,4-dichlorophenyl)isoxazole-4-carboxylate]
IC50 [1, 4]: 100 to 1000 nM

IC50 (IL-17FF; [2]): 10 to 100 nM
IC50 (IFN-γ; [3]): 100 to 1000 nM
Compound: CCOC(=O)c1c(-c2c(Cl)cncc2Cl)noc1-c1cnn(-c2cccnc2)c1C(F)(F)F [IB-12, ethyl 3-(3,5-dichloropyridin-4-yl)-5-(1-(pyridin-3-yl)-5-(trifluoromethyl)-1H-pyrazol-4-yl)isoxazole-4-carboxylate]
IC50 [1, 4]: 100 to 1000 nM

IC50 (IL-17FF; [2]): 100 to 1000 nM
IC50 (IFN-γ; [3]): 100 to 1000 nM
Compound: CCOC(=O)c1c(-c2c(F)cccc2Cl)noc1-c1cnn(CCN2CCOCC2)c1C(F)(F)F [IB-97, ethyl 3-(2-chloro-6-fluorophenyl)-5-(1-(2-morpholinoethyl)-5-(trifluoromethyl)-1H-pyrazol-4-yl)isoxazole-4-carboxylate]
IC50 [1, 4]: 1000 to 10000 nM

IC50 (IL-17FF; [2]): < 10 nM
IC50 (IFN-γ; [3]): < 10 nM
Compound: CCOC(=O)c1c(-c2c(F)cccc2Cl)noc1-c1cnn(-c2ccncc2)c1C(F)(F)F [IB-38, ethyl 3-(2-chloro-6-fluorophenyl)-5-(1-(pyridin-4-yl)-5-(trifluoromethyl)-1H-pyrazol-4-yl)-isoxazole-4-carboxylate]
IC50 [1, 4]: < 10 nM

IC50 (IL-17FF; [2]): 10 to 100 nM
IC50 (IFN-γ; [3]): 100 to 1000 nM
Compound: CC(=O)Nc1cccc(-n2ncc(-c3onc(-c4c(F)cccc4Cl)c3C(=O)OC(C)C)c2C(F)(F)F)c1 [IB-78, isopropyl 5-(1-(3-acetamidophenyl)-5-(trifluoromethyl)-1H-pyrazol-4-yl)-3-(2-chloro-6-fluorophenyl)isoxazole-4-carboxylate]
IC50 [1, 4]: 100 to 1000 nM
